Assay results: patent US9750718B2, “Methods of treating hepatic fibrosis and associated diseases by regulating Rev-ERB activity” (The Charlotte-Mecklenburg Hospital Authority, priority 2012, dated 2017)
pEC50: −log10 of the molar value.

Key:
[1] = tested on: Rev-erbα; experiment: Rev-erbα protein expression in HSCs under pro- and anti-fibrogenic factors (Western blot); format: cell-based, rat
Procedure: (§1) Primary rat HSCs were isolated by pronase/collagenase perfusion digestion followed by density gradient centrifugation with Optiprep. Media was replaced every other day to replenish Rev-erbα modulator SR6452, which was present at a 10 μM concentration. Cells were treated with MDIR mixture (IBMX, dexamethasone, insulin, rosiglitazone), TGFβ, or DMSO (vehicle). Some experiments were performed with the human HSC cell line, LX-2.
FIG. 2B show results from primary HSCs that were treated with pro-fibrogenic factor TGFβ (5 ng/ml) or myosin inhibitors blebbistatin (Bleb) or BDM (2,3-Butanedione monoxime) for 48 hrs. Cells were harvested for protein and Western blots performed to detect Rev-erbα.

[2] = tested on: primary rat HSCs; experiment: Adipogenesis in culture-activated primary HSCs (Oil Red O staining, qRT-PCR of adipogenic factors); format: cell-based
Procedure: (§2) A series of experiments were conducted to determine the functional role of Rev-erbα in HSC transdifferentiation. In these experiments, culture-activated primary rat HSCs and human LX-2 cells were used. To determine the effect of Rev-erbα on HSC transdifferentiation and contraction, cells were treated with a specific synthetic modulator, SR6452 (10 μM). mRNA and protein expression were determined by qRT-PCR and Western blot, respectively. Changes in cellular morphology, Rev-erb expression/localization and αSMA expression were observed by confocal microscopy. Additionally, cell contractility was assessed.
as §1
(§3) mRNA expression was normalized to 18S rRNA.
FIGS. 3A-B illustrates that modulation of Rev-erbα activity can regulate adipogenesis. Primary HSCs were culture-activated for 5 days (A) or 15 days (B). Cells were treated with vehicle (DMSO, open bar), or the Rev-erbα modulator SR6452 ([…], purple bar) for the days indicated. The medium was changed every 48 hrs. FIG. 3A provides a chart summarizing the amount of PPARγ, SREBP1, and Lep mRNA on day 5.

[3] = tested on: primary rat HSCs; experiment: ECM gene expression by qRT-PCR in primary HSCs; format: cell-based; settings: SR6452 10 μM, day Q to day 5 or day 9 to day 12
Procedure: as §2, §1, §3
FIGS. 4A-B illustrate that the Rev-erbα modulator SR6452 can suppress/decrease ECM gene expression. Primary rat HSCs were cultured from quiescence (day Q) to day 5 (FIG. 4A) or from day 9 to day 12 (FIG. 4B) and treated with Rev-erbα modulator SR6452. qRT-PCR was performed to determine ECM gene expression. DMSO was used as the vehicle control, while SR6452 was used as the Rev-erbα modulator.

[4] = tested on: primary rat HSCs; experiment: Myofibroblast marker expression and morphology (qRT-PCR, αSMA immunocytochemistry); format: cell-based
Procedure: as §2, §3
Prior to transfection, culture-activated HSCs (for varying days of activation) were seeded onto glass coverslips. Cells were fixed with 4% paraformaldehyde and stained with anti-αSMA antibody, a marker of HSC activation. Cells were imaged using a Zeiss confocal microscope. The fluorescence indicates Rev-erb or αSMA expression.
(§4) FIGS. 5A-D illustrate that Rev-erbα modulator SR6452 can regulate myofibroblast marker expression and HSC contraction. Primary rat HSCs were cultured from quiescence (day Q) to day 5 (FIG. 5A) or from day 9 to day 12 (FIG. 5B) and treated with Rev-erbα modulator SR6452. qRT-PCR was performed for myofibroblast gene expression. Samples were normalized with 18S rRNA. […] HSCs (day 5) were embedded in a collagen gel and treated as indicated for 48 hrs. Gels were then released from plastic surface and contraction monitored after 72 hrs. Materials used were DMSO (vehicle control), SR6452, Rev-erb modulator; and BDM (2,3-Butanedione monoxime), myosin inhibitor.

[5] = tested on: primary rat HSCs; experiment: Cell contraction assay (collagen gel); format: cell-based; settings: HSCs embedded in collagen gel, treated 48 hrs, contraction monitored after 72 hrs
Procedure: Primary rat HSCs (day 9, 2-5×10^6 cells/ml) were embedded in a collagen lattice per manufacturer's instructions. Cells were treated with synthetic Rev-erbα ligand SR6452. Collagen gel size change was imaged using a BioSpectrum Imaging System.
as §4

[6] = tested on: LX-2 cells; experiment: Response of LX-2 cells to Rev-erb agonist, with or without Rev-erbα overexpression; format: cell-based, human
Procedure: Primary rat HSCs were isolated via standard pronase-collagenase digestion and subsequent density gradient centrifugation. LX-2 cells were treated with adipogenic mixture (MDI), 5 ng/ml of recombinant transforming growth factor-beta (TGFβ), or plated on Matrigel™ (growth condition which promotes HSC quiescence) for various time points. Gene expression was determined by RealTime PCR and Western blot. Immunocytochemistry followed by confocal microscopy was used to determine sub-cellular localization. A Rev-erb DNA binding domain (DBD) mutant was produced by standard molecular cloning. LX-2 cells were transfected with expression vectors or controls using Fugene®HD.

[7] = target: T1, Rev-erbα (Homo sapiens, UniProt P20393); settings: cited from earlier work
T1 sequence (P20393 1-614): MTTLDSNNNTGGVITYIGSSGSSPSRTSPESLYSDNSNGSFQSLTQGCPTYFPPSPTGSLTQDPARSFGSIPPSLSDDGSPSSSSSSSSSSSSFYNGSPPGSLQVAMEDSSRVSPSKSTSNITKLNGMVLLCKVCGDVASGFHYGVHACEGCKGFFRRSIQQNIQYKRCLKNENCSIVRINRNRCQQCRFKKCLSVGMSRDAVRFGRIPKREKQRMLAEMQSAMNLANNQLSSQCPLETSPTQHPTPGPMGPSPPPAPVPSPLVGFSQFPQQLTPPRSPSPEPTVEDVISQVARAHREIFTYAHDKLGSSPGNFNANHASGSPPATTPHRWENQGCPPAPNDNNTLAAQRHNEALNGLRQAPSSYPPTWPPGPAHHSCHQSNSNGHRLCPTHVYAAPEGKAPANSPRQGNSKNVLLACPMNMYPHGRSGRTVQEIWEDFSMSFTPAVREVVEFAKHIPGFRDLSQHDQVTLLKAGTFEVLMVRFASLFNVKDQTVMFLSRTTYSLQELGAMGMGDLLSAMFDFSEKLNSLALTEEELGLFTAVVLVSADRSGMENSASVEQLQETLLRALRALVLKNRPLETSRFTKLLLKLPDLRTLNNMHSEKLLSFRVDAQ

[8] = tested on: CCl4-induced liver fibrosis; experiment: CCl4-induced liver fibrosis mouse model (herovici histology, qRT-PCR of whole liver); format: in vivo
Procedure: Male C57BL/6 mice (age 9 weeks) were injected intraperitoneally with carbon tetrachloride (CCl4) in sterile olive oil (1 μl CCl4/g body weight) twice a week for 5 weeks. Three weeks after initiation of CCl4 treatment, SR9009 (EMD Millipore, dissolved in DMSO) was administered 5 times a week at a dose of 0.1 mg/g body weight for two weeks. Mice were sacrificed 72 hours after the last dose of SR9009 and livers were harvested for further analysis. For histology studies, livers of the right and left lobes were fixed in 10% formalin, embedded in paraffin, sectioned, and stained with herovici to detect collagen deposition. For gene expression studies, total RNA was extracted from whole liver homogenates, and qRT-PCR performed to detect various markers, including αSMA, Col1α1, Col1α2, tenascin C, and connective tissue growth factor.

[9] = SR6452 10 μM, mRNA by qRT-PCR, day 5
[10] = qRT-PCR whole liver, CCl4 + SR9009 0.1 mg/g

TGFβ
cytoplasmic Rev-erbα ([1]; TGFβ treatment): stabilized
Rev-erbα protein expression ([1]; Western blot, TGFβ 5 ng/ml 48 hrs, MDIR or matrigel through day 4): increased

CC(C)(C)OC(=O)CN(Cc1ccc(Cl)cc1)Cc1ccc([N+](=O)[O-])s1 [SR6452, 1,1-Dimethylethyl-N-[(4-chlorophenyl)methyl]-N-[(5-nitro-2-thienyl)methyl]) glycinate]
lipid content in activated HSCs ([2]; SR6452 10 μM, Oil Red O, day 15): increased
PPARγ expression [2, 9]: up-regulated
SREBP1 expression [2, 9]: up-regulated
HSC adipogenesis ([2]; exposure of quiescent HSCs): promoted
Type I collagen expression [3]: significantly down-regulated
fibronectin expression [3]: significantly down-regulated
tenascin C expression [3]: significantly down-regulated
major regulatory and structural genes controlling myofibroblast contraction ([4]; SR6452 10 μM, qRT-PCR normalized to 18S rRNA): repressive effects
cell morphology ([4]; day 9 HSCs treated 72 hrs, αSMA/DAPI immunocytochemistry): slightly rounded/folded cytoplasm with disoriented actin fibers
effect on HSC activation ([4]; overall conclusion of Example 1): suppressive effect
HSC contraction [5]: impeded
response to Rev-erb agonist ([6]; LX-2 cells overexpressing Rev-erbα): sensitive
response to Rev-erb agonist ([6]; LX-2 cells without Rev-erbα overexpression): non-responsive
recruitment of nuclear receptor co-repressor (NCoR) peptide to Rev-erbα [7]: enhances recruitment
pEC50 ([7]; read-out: EC50 (synthetic Rev-erb agonist)): 6.60

CCOC(=O)N1CCC(CN(Cc2ccc(Cl)cc2)Cc2ccc([N+](=O)[O-])s2)C1 (stereo not shown) [SR9009]
liver architecture and collagen deposition (herovici stain) ([8]; C57BL/6 mice, CCl4 5 weeks, SR9009 0.1 mg/g 5 times a week for two weeks): essentially normal liver architecture and amount of collagen deposition
CCl4-mediated liver fibrosis ([8]; mice, histological and expression data): effective reverses
Col1α1 expression in liver [8, 10]: down to almost normal levels
Col1α2 expression in liver [8, 10]: down to almost normal levels
αSMA expression in liver [8, 10]: down to almost normal levels
